In article PMC10112521, “High-throughput AR dimerization assay identifies androgen disrupting chemicals and metabolites” (Frontiers in Toxicology, 2023):
“And” between values parts separate entries of the source, which are not always exact repeats. Equal entries are not always repeated. Where two headings read alike, the source gives them in different places.

Legend:
human AR [1] = target: T1, human AR (Homo sapiens, UniProt P10275); assay: cell-based; set-up: species or system AR2 cells (HepG2-AR2); NanoLuc complementation AR homodimerization, agonist mode, luminescence gain, AC50 by Hill fit; conditions: hill_ga
T1 sequence (P10275 1-920) 1: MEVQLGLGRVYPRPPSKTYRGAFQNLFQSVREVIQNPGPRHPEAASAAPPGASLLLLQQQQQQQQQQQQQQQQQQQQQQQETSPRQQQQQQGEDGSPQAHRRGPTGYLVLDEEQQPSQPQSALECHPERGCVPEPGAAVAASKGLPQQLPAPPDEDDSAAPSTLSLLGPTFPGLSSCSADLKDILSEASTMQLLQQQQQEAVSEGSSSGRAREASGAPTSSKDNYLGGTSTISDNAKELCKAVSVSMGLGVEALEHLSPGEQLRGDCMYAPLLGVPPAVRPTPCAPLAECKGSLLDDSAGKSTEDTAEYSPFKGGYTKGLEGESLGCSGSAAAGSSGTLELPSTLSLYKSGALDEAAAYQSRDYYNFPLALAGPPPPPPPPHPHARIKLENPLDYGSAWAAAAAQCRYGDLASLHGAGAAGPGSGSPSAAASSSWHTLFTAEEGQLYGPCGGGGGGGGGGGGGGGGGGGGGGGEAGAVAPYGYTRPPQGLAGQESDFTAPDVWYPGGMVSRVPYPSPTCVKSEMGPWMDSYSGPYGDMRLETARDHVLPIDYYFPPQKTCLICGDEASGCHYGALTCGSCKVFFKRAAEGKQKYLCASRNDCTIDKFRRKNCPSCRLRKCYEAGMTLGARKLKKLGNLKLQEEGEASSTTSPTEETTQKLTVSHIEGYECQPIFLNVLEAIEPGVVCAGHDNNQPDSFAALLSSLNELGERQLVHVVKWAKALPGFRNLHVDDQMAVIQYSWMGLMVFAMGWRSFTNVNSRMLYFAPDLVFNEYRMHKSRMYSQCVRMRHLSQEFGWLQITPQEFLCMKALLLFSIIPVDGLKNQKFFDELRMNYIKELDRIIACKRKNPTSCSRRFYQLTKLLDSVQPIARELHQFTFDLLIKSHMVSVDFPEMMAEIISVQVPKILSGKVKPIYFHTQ
T1 sequence (P10275 1-920) 2: T1 sequence (P10275 1-920) 1

AR2 cells (HepG2-AR2) [2] = assay: Alamar Blue (resazurin) post hoc cell viability / cytotoxicity assay in AR2 cells; conditions: spid Viability, sheet antagonist_fits; for hill_tp (Hill model top): 0 where win_model is Constant
Protocol: (§1) For antagonist mode and cytotoxicity data, well-level normalized response (resp) was calculated as: resp=100 * RLU−bval/pval−bval where pval is the median RLU value of the MEC positive control wells (minimum four wells).

human AR [3] = target: T1, human AR; assay: AR2 assay, antagonist mode: disruption of R1881 (10 nM)-induced AR homodimerization in HepG2-AR2 cells; type: cell-based; conditions: spid AR_antagonist, sheet antagonist_fits; for hill_gw (Hill model slope) / hill_tp (Hill model top): 0 where win_model is Constant
human AR [4] = target: T1, human AR; assay: cell-based; set-up: species or system AR2 cells (HepG2-AR2); NanoLuc complementation AR homodimerization, antagonist mode, loss of agonist-induced luminescence, AC50 by Hill fit; conditions: hill_ga
human AR [5] = target: T1, human AR; assay: AR2 assay, agonist mode: ligand-dependent AR homodimerization (NanoBiT luciferase complementation) in stable HepG2-AR2 cells; type: cell-based; conditions: for hill_gw: Hill model gain slope (Hill coefficient); for hill_gw / hill_tp: 0 given where win_model is Constant; for hill_tp: Hill model top (efficacy); for win_model: winning concentration-response model (Constant, Hill, Gain-Loss);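 on hill tp: Log2 fold change of luminescence over DMSO vehicle wells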;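 on max med: Log2 fold change of luminescence over DMSO vehicle wells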
AR = system: AR; set-up: method as in Kleinstreuer et al., 2017; conditions: 2017, cited from earlier work; for Agonist reference: AR agonist reference class ref Kleinstreuer et al.; for Antagonist reference: AR antagonist reference class ref Kleinstreuer et al.
AR2 cells (HepG2-AR2) [6] = system: AR2 cells (HepG2-AR2)
Protocol: as §1

[7] = spid=Bgal, agonist mode, 18 h, no CYP expressed
[8] = spid=No_RNA, agonist mode, 18 h, no CYP expressed
[9] = spid=Bgal, antagonist mode, 10 nM agonist stimulus, 18 h, no CYP expressed
[10] = spid=No_RNA, antagonist mode, 10 nM agonist stimulus, 18 h, no CYP expressed
[11] = sheet agonist_fits, maximum median response

## O=C(c1ccc(O)cc1O)c1ccc(O)cc1O [2,2',4,4'-Tetrahydroxybenzophenone]
Human AR [1]; [7]
  AC50: 9.83 µM
Human AR [1]; [8]
  AC50: 9.94 µM
AR2 cells (HepG2-AR2) [2]
  max_med (maximum median response): 18.7262
  hill_tp (Hill model top): 17.7235
Human AR [3]
  max_med (maximum median response): 92.9832
  win_model (winning concentration-response model): Hill
  hill_gw (Hill model slope): 1.5932
  hill_tp (Hill model top): 93.4271
Human AR [4]; [9]
  AC50: 9.95 µM
Human AR [4]; [10]
  AC50: 10.6 µM
Human AR [5]; sheet agonist_fits
  hill_gw: 3.418
  hill_tp: 2.275
  win_model: Gain-Loss
Human AR [5]; [11]
  max_med: 2.26

## CCNc1nc(Cl)nc(NC(C)C)n1 [Atrazine]
AR
  Agonist reference: Inactive
  Antagonist reference: Inactive
AR; Supplementary Table S1
  Agonist reference: Inactive
  Antagonist reference: Inactive
AR2 cells (HepG2-AR2) [2]
  max_med (maximum median response): 11.6649
  hill_tp (Hill model top): 7.792
AR2 cells (HepG2-AR2) [6]
  hill_ga (Hill model log AC50): 1.242

## CCCCOC(=O)c1ccc(O)cc1 [Butylparaben]
Human AR [1]; [7]
  AC50: 10.4 µM
Human AR [1]; [8]
  AC50: 15.3 µM
AR2 cells (HepG2-AR2) [2]
  max_med (maximum median response): 19.2784
  hill_tp (Hill model top): 11.4715
Human AR [3]
  max_med (maximum median response): 51.2671
  win_model (winning concentration-response model): Hill
  hill_gw (Hill model slope): 8
  hill_tp (Hill model top): 52.9514
Human AR [4]; [9]
  AC50: 73.1 µM
Human AR [4]; [10]
  AC50: 67.8 µM
Human AR [5]; sheet agonist_fits
  hill_gw: 8
  hill_tp: 0.09975
  win_model: Gain-Loss
Human AR [5]; [11]
  max_med: 0.1079

## CCOP(=S)(OCC)Oc1nc(Cl)c(Cl)cc1Cl [Chlorpyrifos]
Human AR [1]
  AC50: > 99.9 µM
AR2 cells (HepG2-AR2) [2]
  max_med (maximum median response): 11.582
  hill_tp (Hill model top): 0
Human AR [3]
  max_med (maximum median response): 43.366
  win_model (winning concentration-response model): Hill
  hill_gw (Hill model slope): 1.601
  hill_tp (Hill model top): 66.6083
Human AR [4]
  AC50: 32.9 µM and 58.7 µM
Human AR [5]; [11]
  max_med: -0.04623

## CC1(C)C(C=C(Cl)Cl)C1C(=O)OC(C#N)c1ccc(F)c(Oc2ccccc2)c1 (centres unmarked) [Cyfluthrin]
AR
  Agonist reference: Inactive
AR2 cells (HepG2-AR2) [2]
  max_med (maximum median response): 9.8887
  hill_tp (Hill model top): 0
AR2 cells (HepG2-AR2) [6]
  hill_ga (Hill model log AC50): 0

## CC1(C)C(C=C(Cl)Cl)C1C(=O)OC(C#N)c1cccc(Oc2ccccc2)c1 (centres unmarked) [Cypermethrin]
AR
  Agonist reference: Inactive
AR2 cells (HepG2-AR2) [2]
  max_med (maximum median response): 5.609
  hill_tp (Hill model top): 0
AR2 cells (HepG2-AR2) [6]
  hill_ga (Hill model log AC50): 0

## CCCSP(=O)(OCC)SCCC [Ethoprop]
Human AR [1]; [7]
  AC50: > 99.9 µM
AR2 cells (HepG2-AR2) [2]
  max_med (maximum median response): 22.3553
  hill_tp (Hill model top): 18.1513
Human AR [3]
  max_med (maximum median response): 30.1172
  win_model (winning concentration-response model): Hill
  hill_gw (Hill model slope): 1.091
  hill_tp (Hill model top): 36.6932
Human AR [5]
  max_med: -0.01755

## CCOC(=O)c1ccc(O)cc1 [Ethylparaben]
AR2 cells (HepG2-AR2) [2]
  max_med (maximum median response): 6.202
  hill_tp (Hill model top): 0
AR2 cells (HepG2-AR2) [6]
  hill_ga (Hill model log AC50): 0

## OC(c1ccc(Cl)cc1)(c1cncnc1)c1ccccc1Cl (centres unmarked) [Fenarimol]
AR
  Agonist reference: Inactive
  Antagonist reference: Weak
AR; Supplementary Table S1
  Antagonist reference: Weak
AR2 cells (HepG2-AR2) [2]
  max_med (maximum median response): 16.9049
  hill_tp (Hill model top): 0
AR2 cells (HepG2-AR2) [6]
  hill_ga (Hill model log AC50): 0

## O=C1c2ccccc2C(=O)N1SC(Cl)(Cl)Cl [Folpet]
AR2 cells (HepG2-AR2) [2]
  max_med (maximum median response): 26.2456
  hill_tp (Hill model top): 26.8665
AR2 cells (HepG2-AR2) [6]
  hill_ga (Hill model log AC50): 1.483

## CC(C)NC(=O)N1CC(=O)N(c2cc(Cl)cc(Cl)c2)C1=O [Iprodione]
AR; Supplementary Table S1
  Agonist reference: Inactive
AR2 cells (HepG2-AR2) [2]
  max_med (maximum median response): 9.628
  hill_tp (Hill model top): 0
AR2 cells (HepG2-AR2) [6]
  hill_ga (Hill model log AC50): 0

## CNc1cnn(-c2cccc(C(F)(F)F)c2)c(=O)c1Cl [Norflurazon]
AR2 cells (HepG2-AR2) [2]
  max_med (maximum median response): 4.6212
  hill_tp (Hill model top): 0
AR2 cells (HepG2-AR2) [6]
  hill_ga (Hill model log AC50): 0

## O=[N+]([O-])c1c(Cl)c(Cl)c(Cl)c(Cl)c1Cl [Pentachloronitrobenzene]
Human AR [1]; [7]
  AC50: > 99.9 µM
AR2 cells (HepG2-AR2) [2]
  max_med (maximum median response): 37.6424
  hill_tp (Hill model top): 16.6244
Human AR [3]
  max_med (maximum median response): 40.8543
  win_model (winning concentration-response model): Hill
  hill_gw (Hill model slope): 8
  hill_tp (Hill model top): 49.0252
Human AR [5]; sheet agonist_fits
  hill_gw: 5.807
  hill_tp: 0.296
  win_model: Gain-Loss
Human AR [5]; [11]
  max_med: 0.2467

## C#CCOS(=O)OC1CCCCC1Oc1ccc(C(C)(C)C)cc1 (centres unmarked) [Propargite]
AR2 cells (HepG2-AR2) [2]
  max_med (maximum median response): 5.892
  hill_tp (Hill model top): 5.298
AR2 cells (HepG2-AR2) [6]
  hill_ga (Hill model log AC50): 0.5083

## CCNc1nc(Cl)nc(NCC)n1 [Simazine]
AR
  Antagonist reference: Inactive
AR2 cells (HepG2-AR2) [2]
  max_med (maximum median response): 12.6117
  hill_tp (Hill model top): 7.295
AR2 cells (HepG2-AR2) [6]
  hill_ga (Hill model log AC50): -0.7451

## CC(C)(C)C(=O)C(Oc1ccc(Cl)cc1)n1cncn1 (centres unmarked) [Triadimefon]
AR2 cells (HepG2-AR2) [2]
  max_med (maximum median response): 19.918
  hill_tp (Hill model top): 58.3985
AR2 cells (HepG2-AR2) [6]
  hill_ga (Hill model log AC50): -3.878

## C=CC1(C)OC(=O)N(c2cc(Cl)cc(Cl)c2)C1=O (centres unmarked) [Vinclozolin]
AR
  Antagonist reference: Weak
AR; Supplementary Table S1
  Antagonist reference: Weak
AR2 cells (HepG2-AR2) [2]
  max_med (maximum median response): 15.9864
  hill_tp (Hill model top): 12.9726
AR2 cells (HepG2-AR2) [6]
  hill_ga (Hill model log AC50): -3.255

## Clc1ccc(C(c2ccccc2Cl)C(Cl)(Cl)Cl)cc1 (centres unmarked) [o,p'-DDT]
AR
  Agonist reference: Inactive
  Antagonist reference: Weak
AR; Supplementary Table S1
  Antagonist reference: Weak
AR2 cells (HepG2-AR2) [6]
  hill_ga (Hill model log AC50): 1.826
AR2 cells (HepG2-AR2) [6]; human
  hill_tp (Hill model top of curve): 110.666
  max_med (maximum median response): 83.8839

## ClC(Cl)=C(c1ccc(Cl)cc1)c1ccc(Cl)cc1 [p,p'-DDE]
AR; Supplementary Table S1
  Antagonist reference: Weak
AR2 cells (HepG2-AR2) [6]
  hill_ga (Hill model log AC50): 1.812
